Assay: xn = mol fraction of the nth substance listed
Conditions: 101 kPa, Liquid; for viscosity: Capillary tube (Ostwald / Ubbelohde) method; for mass density: Vibrating tube method

CCCCn1cc[n+](C)c1.[Cl-] [1-butyl-3-methylimidazolium chloride] + O
Conditions	mass density, 298.15 K [kg/m3]	mass density, 313.15 K [kg/m3]	mass density, 328.15 K [kg/m3]	mass density, 343.15 K [kg/m3]	viscosity, 298.15 K [mPa·s]	viscosity, 313.15 K [mPa·s]	viscosity, 328.15 K [mPa·s]	viscosity, 343.15 K [mPa·s]
x2 = 0.5666	1081	1072	1063.4	1054.7	123.5	56.63	30.04	17.69
x2 = 0.607	1079.9	1070.8	1062	1053.1	72.16	35.36	19.75	12.2
x2 = 0.6933	1076.5	1067.2	1058.1	1048.8	35.66	18.94	11.32	7.386
x2 = 0.7698	1071.1	1061.5	–	–	18.08	10.11	–	–
x2 = 0.7699	–	–	1052.1	1042.4	–	–	6.474	4.419
x2 = 0.8279	1063.8	1054.1	1044.5	1034.4	10.19	6.125	4.019	2.858
x2 = 0.8674	1057.1	1047.1	1037.3	1027.1	6.628	4.123	2.795	2.043
x2 = 0.9194	1042.3	1032.8	1023.3	1013.1	3.543	2.311	1.635	1.228
x2 = 0.9625	1022.3	1014	1006.1	996.7	1.886	1.297	0.955	0.741
x2 = 0.9885	1005.2	999.1	989.3	979.6	1.175	0.955	0.753	0.652

CCCCCCn1cc[n+](C)c1.[Cl-] [1-hexyl-3-methylimidazolium chloride] + O
Conditions	mass density, 298.15 K [kg/m3]	mass density, 313.15 K [kg/m3]	mass density, 328.15 K [kg/m3]	mass density, 343.15 K [kg/m3]	viscosity, 298.15 K [mPa·s]	viscosity, 313.15 K [mPa·s]	viscosity, 328.15 K [mPa·s]	viscosity, 343.15 K [mPa·s]
x2 = 0	1039.67	1031.13	1022.69	1014.34	18089	3429	942.1	339.5
x2 = 0.1274	1040.45	1031.89	1023.44	1015.06	7667	1746	516.4	207.4
x2 = 0.3173	1040.7	1032.22	1023.8	1015.5	1020	393.5	165.7	79.07
x2 = 0.3906	1040.95	1032.63	1024.3	1015.77	499.4	188.9	86.76	45.52
x2 = 0.5594	1041.4	1032.76	1024.14	1015.4	201.2	88.11	44.87	25.37
x2 = 0.7127	1038.77	1029.8	1020.75	1011.45	60.75	30.04	16.83	10.39
x2 = 0.783	1035.72	1026.67	1017.17	1007.71	33.79	17.49	10.17	6.542
x2 = 0.8935	1025.28	1016.2	1006.79	997	8.688	5.191	3.367	2.358
x2 = 0.9417	1018.17	1009.43	1000.13	990.26	3.505	2.323	1.649	1.224

CCCCCCCC[n+]1ccn(C)c1.[Cl-] [1-methyl-3-octylimidazolium chloride] + O
Conditions	mass density, 298.15 K [kg/m3]	mass density, 313.15 K [kg/m3]	mass density, 328.15 K [kg/m3]	mass density, 343.15 K [kg/m3]	viscosity, 298.15 K [mPa·s]	viscosity, 313.15 K [mPa·s]	viscosity, 328.15 K [mPa·s]	viscosity, 343.15 K [mPa·s]
x2 = 0	1008.82	1000.2	991.67	983.24	20883	4066	1091	387.2
x2 = 0.1484	1009.61	1000.98	992.42	983.87	5570	1470	484.6	200.1
x2 = 0.203	1009.99	1001.35	992.77	984.21	3815	1097	393.5	165.4
x2 = 0.4076	1011.83	1003.2	994.4	985.6	1325	387.9	170.8	84.75
x2 = 0.5334	1012.7	1003.76	994.81	985.96	921.1	337.9	147.7	74.31
x2 = 0.6807	1012.37	1003.16	993.98	984.8	433	175.5	83.26	44.23
x2 = 0.8185	1009.16	1000.09	990.76	981.11	193.4	83.87	42.22	24.22
x2 = 0.8803	1006.63	997.6	988.16	978.39	80.77	38.02	20.45	12.17
x2 = 0.9307	1003.69	995.12	985.89	976.15	22.48	13.27	8.18	5.33
x2 = 0.9635	1001.1	993.58	985.06	975.71	5.71	4.25	3.3	2.65

Reference: the NIST ThermoML archive (doi:10.1021/je050460d)
